The record followed here is publication PMC10175918 (Communications Biology, 2023).

Test in all cases: TGFα-shedding assay-based GPCR screening with chimeric Gα subunit proteins
Type in all cases: cell-based

For assay [1], the target named is T1, 348 GPCRs (Homo sapiens, UniProt Q96CH1).
T1 construct: expressed in transfected cells; host or cells: HEK293A
To be noted: 10µM, Favipiravir 100μM.

Assay [2] deals with T2, 348 GPCRs (Homo sapiens, UniProt Q6DWJ6).
T2 construct: expressed in transfected cells; host or cells: HEK293A
T2 sequence (Q6DWJ6 1-353): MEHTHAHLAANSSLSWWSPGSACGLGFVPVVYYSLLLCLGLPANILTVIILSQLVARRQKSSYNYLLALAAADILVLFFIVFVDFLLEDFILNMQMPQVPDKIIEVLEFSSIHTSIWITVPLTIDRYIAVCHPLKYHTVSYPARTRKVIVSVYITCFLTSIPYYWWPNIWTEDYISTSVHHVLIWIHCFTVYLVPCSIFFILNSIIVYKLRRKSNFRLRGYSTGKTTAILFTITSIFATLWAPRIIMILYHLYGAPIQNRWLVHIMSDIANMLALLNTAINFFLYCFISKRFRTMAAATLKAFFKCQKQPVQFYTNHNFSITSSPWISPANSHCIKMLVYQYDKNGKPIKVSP
Particulars: 10µM, Favipiravir 100μM.

In assay [3] the target is T3, 348 GPCRs (Homo sapiens, UniProt Q7Z601).
T3 construct: expressed in transfected cells; host or cells: HEK293A
T3 sequence (Q7Z601 1-462): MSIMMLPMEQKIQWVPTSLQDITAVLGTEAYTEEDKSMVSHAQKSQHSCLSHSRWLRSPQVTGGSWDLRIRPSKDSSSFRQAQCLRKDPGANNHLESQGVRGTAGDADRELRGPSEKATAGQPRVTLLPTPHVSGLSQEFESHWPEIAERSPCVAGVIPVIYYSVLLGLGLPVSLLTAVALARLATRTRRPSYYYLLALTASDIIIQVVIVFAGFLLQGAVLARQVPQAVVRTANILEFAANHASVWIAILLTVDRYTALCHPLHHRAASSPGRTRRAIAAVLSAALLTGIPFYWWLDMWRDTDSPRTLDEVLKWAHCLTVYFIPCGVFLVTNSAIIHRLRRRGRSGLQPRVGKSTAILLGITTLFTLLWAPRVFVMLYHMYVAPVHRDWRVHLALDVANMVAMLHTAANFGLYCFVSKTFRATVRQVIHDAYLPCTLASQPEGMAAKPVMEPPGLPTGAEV
Particulars: 10µM, Favipiravir 100μM.

The target in assay [4] is T4, 348 GPCRs (Homo sapiens, UniProt Q86SM5).
T4 construct: expressed in transfected cells; host or cells: HEK293A
T4 sequence (Q86SM5 1-289): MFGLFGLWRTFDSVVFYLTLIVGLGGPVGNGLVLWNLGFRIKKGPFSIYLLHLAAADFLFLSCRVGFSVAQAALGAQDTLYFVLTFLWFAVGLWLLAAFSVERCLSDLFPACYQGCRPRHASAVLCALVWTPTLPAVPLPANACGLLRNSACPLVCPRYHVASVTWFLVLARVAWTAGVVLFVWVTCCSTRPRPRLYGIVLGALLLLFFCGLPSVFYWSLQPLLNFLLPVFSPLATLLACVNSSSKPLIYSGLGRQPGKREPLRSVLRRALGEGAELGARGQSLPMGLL
Particulars: 10µM, Favipiravir 100μM.

Assay [5] has as its target T5, 348 GPCRs (Homo sapiens, UniProt P41968).
T5 construct: expressed in transfected cells; host or cells: HEK293A

In assay [6] the target is 348 GPCRs (Homo sapiens, UniProt P35346). Particulars: 10µM, Favipiravir 100μM.
In assay [7] the target is T6, 348 GPCRs (Homo sapiens, UniProt P46091).
T6 construct: expressed in transfected cells; host or cells: HEK293A
T6 sequence (P46091 1-355): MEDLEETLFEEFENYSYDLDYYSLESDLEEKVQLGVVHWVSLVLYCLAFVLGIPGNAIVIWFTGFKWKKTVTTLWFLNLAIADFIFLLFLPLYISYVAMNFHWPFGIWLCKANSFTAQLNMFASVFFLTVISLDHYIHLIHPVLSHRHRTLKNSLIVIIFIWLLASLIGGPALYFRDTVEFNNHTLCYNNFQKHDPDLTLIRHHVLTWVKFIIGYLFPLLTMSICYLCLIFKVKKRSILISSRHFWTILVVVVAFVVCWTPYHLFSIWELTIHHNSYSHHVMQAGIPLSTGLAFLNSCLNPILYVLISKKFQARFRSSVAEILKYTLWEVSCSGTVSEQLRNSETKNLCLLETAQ

In assay [8] the target is T7, 348 GPCRs (Homo sapiens, UniProt Q6W5P4).
T7 construct: expressed in transfected cells; host or cells: HEK293A
T7 sequence (Q6W5P4 1-371): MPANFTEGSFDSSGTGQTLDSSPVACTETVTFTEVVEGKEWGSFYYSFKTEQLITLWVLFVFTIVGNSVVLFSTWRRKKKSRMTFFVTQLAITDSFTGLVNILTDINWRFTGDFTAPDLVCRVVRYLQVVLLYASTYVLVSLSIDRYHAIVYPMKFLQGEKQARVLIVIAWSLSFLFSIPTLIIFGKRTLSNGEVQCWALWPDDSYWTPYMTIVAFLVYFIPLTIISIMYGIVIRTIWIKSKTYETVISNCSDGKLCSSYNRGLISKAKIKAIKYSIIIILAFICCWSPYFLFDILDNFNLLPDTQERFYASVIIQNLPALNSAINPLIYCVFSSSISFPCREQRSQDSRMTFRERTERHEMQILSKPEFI
Particulars: 10µM, Favipiravir 100μM.

The mark [9] stands for this setting: GPR146 (G protein-coupled receptor 146), read-out: % GPCR activation compared to TPA.
Setting [10] is: GPR139 (G protein-coupled receptor 139), read-out: % GPCR activation compared to TPA.
Setting [11] is: GPR142 (G protein-coupled receptor 142), read-out: % GPCR activation compared to TPA.
Setting [12] is: MRGPRG (MAS-related GPR, member G), read-out: % GPCR activation compared to TPA.
The mark [13] stands for this setting: GPCR MC3R (melanocortin 3 receptor), read-out: % GPCR activation compared to TPA.
[14] abbreviates: SSTR5 (somatostatin receptor 5), read-out: % GPCR activation compared to TPA.
The mark [15] stands for this setting: GPCR GPR1 (G protein-coupled receptor 1), read-out: % GPCR activation compared to TPA.
Setting [16] is: NPS (neuropeptide S receptor 1), read-out: % GPCR activation compared to TPA.
The mark [17] stands for this setting: read-out: % GPCR activation compared to TPA, GPR146 (G protein-coupled receptor 146).
Setting [18] is: read-out: % GPCR activation compared to TPA, GPR139 (G protein-coupled receptor 139).
The mark [19] stands for this setting: read-out: % GPCR activation compared to TPA, GPR142 (G protein-coupled receptor 142).
Where [20] appears, read: read-out: % GPCR activation compared to TPA, MRGPRG (MAS-related GPR, member G).
The mark [21] stands for this setting: read-out: % GPCR activation compared to TPA, GPCR MC3R (melanocortin 3 receptor).
Setting [22] is: read-out: % GPCR activation compared to TPA, SSTR5 (somatostatin receptor 5).
Setting [23] is: read-out: % GPCR activation compared to TPA, GPCR GPR1 (G protein-coupled receptor 1).
The mark [24] stands for this setting: read-out: % GPCR activation compared to TPA, NPS (neuropeptide S receptor 1).

Where two headings read alike, the source gives them in different places.

T5 sequence (P41968 whole entry): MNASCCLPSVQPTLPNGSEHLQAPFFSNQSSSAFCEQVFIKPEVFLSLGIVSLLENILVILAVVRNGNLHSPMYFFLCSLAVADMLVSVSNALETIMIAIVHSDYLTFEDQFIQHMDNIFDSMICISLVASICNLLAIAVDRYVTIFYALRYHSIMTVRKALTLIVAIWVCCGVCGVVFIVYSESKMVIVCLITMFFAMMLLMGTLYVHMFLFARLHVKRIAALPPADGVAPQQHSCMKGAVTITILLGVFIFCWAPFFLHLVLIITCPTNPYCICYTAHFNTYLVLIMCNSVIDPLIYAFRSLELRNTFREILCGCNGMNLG
348 GPCRs (Homo sapiens, UniProt P35346), sequence (P35346 whole entry): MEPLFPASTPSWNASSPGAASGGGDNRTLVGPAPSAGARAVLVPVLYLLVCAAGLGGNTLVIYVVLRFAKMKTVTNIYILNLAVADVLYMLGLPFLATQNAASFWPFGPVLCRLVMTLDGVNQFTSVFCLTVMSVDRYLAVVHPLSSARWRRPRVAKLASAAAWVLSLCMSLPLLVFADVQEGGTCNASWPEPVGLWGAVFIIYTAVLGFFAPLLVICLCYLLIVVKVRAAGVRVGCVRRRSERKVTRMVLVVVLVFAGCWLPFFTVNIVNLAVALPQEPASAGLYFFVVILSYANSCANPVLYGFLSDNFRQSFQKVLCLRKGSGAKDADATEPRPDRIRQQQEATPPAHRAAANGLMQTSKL
T1 sequence (Q96CH1 whole entry): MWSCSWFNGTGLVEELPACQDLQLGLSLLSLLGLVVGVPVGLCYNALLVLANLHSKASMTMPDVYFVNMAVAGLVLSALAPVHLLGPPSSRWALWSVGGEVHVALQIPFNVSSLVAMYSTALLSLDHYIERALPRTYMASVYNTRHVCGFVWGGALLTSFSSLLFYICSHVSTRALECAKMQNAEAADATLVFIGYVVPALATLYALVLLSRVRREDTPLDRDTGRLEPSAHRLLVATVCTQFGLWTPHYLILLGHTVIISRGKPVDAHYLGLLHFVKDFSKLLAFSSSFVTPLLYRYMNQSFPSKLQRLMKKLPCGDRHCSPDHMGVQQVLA

For the compound `CC(C)C(=O)OC[C@H]1O[C@@H](n2ccc(NO)nc2=O)[C@H](O)[C@@H]1O` [molnupiravir], the activation at 100 µM in assay [1] (setting [9]) is -4.56%; in assay [2] (setting [10]), -23.9%; in assay [3] (setting [11]) it was 2.63%; in assay [4] (setting [12]), -1.58%. Also, the activation at 10 µM in assay [5] (setting [13]) was -4.7%; in assay [6] (setting [14]) it was -2.28%; in assay [7] (setting [15]), -1.07%; in assay [8] (setting [16]), -0.116%.

For the compound `CC(C)OC(=O)[C@H](C)N[P@](=O)(OC[C@H]1O[C@@H](n2ccc(=O)[nH]c2=O)[C@](C)(F)[C@@H]1O)Oc1ccccc1` [sofosbuvir], the activation at 100 µM in assay [1] (setting [17]) was -6.46%; in assay [2] (setting [18]), -27.2%; in assay [3] (setting [19]), 3.77%; in assay [4] (setting [20]), -0.28%. The activation at 10 µM is -3.13% in assay [5] (setting [21]), -0.552% in assay [6] (setting [22]), -2.4% in assay [7] (setting [23]) and 0.112% in assay [8] (setting [24]).

Turning to `N#C[C@@]1(c2ccc3c(N)ncnn23)O[C@H](CO)[C@@H](O)[C@H]1O` [GS441524], the activation at 100 µM is 0.00864% in assay [1] (setting [9]), -6.35% in assay [2] (setting [10]), 0.3% in assay [3] (setting [11]) and -1.34% in assay [4] (setting [12]). The activation at 10 µM in assay [5] (setting [13]) was 2.26%; in assay [6] (setting [14]) it was -0.162%; in assay [7] (setting [15]) it was -3.33%; in assay [8] (setting [16]), -1.43%.

With `NC(=O)c1nc(F)cnc1O` [favipiravir, 6-fluoro-3-hydroxy-2-pyrazinecarboxamide], the activation at 100 µM in assay [1] (setting [9]) is 0.0656%; in assay [2] (setting [10]) it was -7.28%; in assay [3] (setting [11]) it was -0.257%; in assay [4] (setting [12]) it was -0.36%; in assay [5] (GPCR MC3R (melanocortin 3 receptor), 100μM, read-out: % GPCR activation compared to TPA) it was 0.3%; in assay [7] (GPCR GPR1 (G protein-coupled receptor 1), 100μM, read-out: % GPCR activation compared to TPA), -1.92%. Moreover, the results for the activation at 10 µM in assay [6] (setting [14]) and in assay [8] (setting [16]) were 2.28% and -0.693%, respectively.

On to `CCC(CC)COC(=O)[C@H](C)N[P@](=O)(OC[C@H]1O[C@@](C#N)(c2ccc3c(N)ncnn23)[C@H](O)[C@@H]1O)Oc1ccccc1` [remdesivir], for which the activation at 100 µM in assay [1] (setting [17]) was 1.36%; in assay [2] (setting [18]), 2.27%; in assay [3] (setting [19]), 1.22%; in assay [4] (setting [20]), -0.00101%. For the same compound, the activation at 10 µM in assay [5] (setting [21]) was 1.7%; in assay [6] (setting [22]) it was -0.348%; in assay [7] (setting [23]), 2.72%; in assay [8] (setting [24]), -0.795%.
